Data on two compounds can be found in US7544814B2, “[3.2.0] Heterocyclic compounds and methods of using the same” (Nereus Pharmaceuticals, Inc., priority 2004, dated 2009).

Each structure is given as a SMILES string. Read-outs that look alike come from different tables or passages of the source.

For data set [1], the target named is T1, chymotrypsin-like activity of 20S proteasomes in RPMI 8226 cells (Homo sapiens, UniProt P28074).
T1 construct: added to 2.5×10^5/ml RMPI 8226 cells; endogenous in cells; host or cells: RPMI 8226 (ATCC CCL-155)
T1 sequence (P28074 60-263): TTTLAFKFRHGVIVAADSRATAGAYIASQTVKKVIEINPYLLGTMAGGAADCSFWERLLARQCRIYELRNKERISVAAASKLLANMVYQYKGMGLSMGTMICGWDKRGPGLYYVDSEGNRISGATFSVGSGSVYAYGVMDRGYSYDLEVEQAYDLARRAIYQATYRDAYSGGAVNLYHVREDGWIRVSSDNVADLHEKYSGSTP
Put plainly: Chymotrypsin-like activity of 20S proteasomes in lysates of treated RPMI 8226 cells. The format is cell-based. The conditions noted are these: RPMI-8226, read-out: % inhibition of the chymotrypsin-like activity of 20S proteasomes in RPMI 8226 cell lysates. As for the experimental part:
RPMI 8226 (ATCC, CCL-155), the human multiple myeloma cell line, was cultured in RPMI 1640 medium supplemented with 2 mM L-glutamine, 100 units/ml penicillin, 100 μg/ml streptomycin, 1 mM sodium pyruvate and 10% heat inactivated fetal bovine serum at 37° C., 5% CO2 and 95% humidified air. […] DMSO was used as the vehicle control at a final concentration of 0.1%. Following 1 hr incubation of RMPI 8226 cells with the compounds, the cells were pelleted by centrifugation at 2,000 rpm for 10 sec at room temperature and washed 3× with ice-cold 1× Dulbecco's Phosphate-Buffered Saline (DPBS, Mediatech, Herndon, Va.). DPBS washed cells were lysed on ice for 15 min in lysis buffer (20 mM HEPES, 0.5 mM EDTA, 0.05% Triton X-100, pH 7.3) supplemented with protease inhibitor cocktail (Roche Diagnostics, Indianapolis, Ind.). Cell debris was pelleted by centrifugation at 14,000 rpm for 10 min, 4° C. and supernatants (=cell lysates) were transferred to a new tube. Protein concentration was determined by the BCA protein assay kit (Pierce Biotechnology, Rockford, Ill.). […] The released coumarin (AMC) was measured fluorometrically by using λex=390 nm and λem=460 nm. The assay was performed in a microtiter plate (Corning 3904) and followed kinetically with measurements every five minutes for 2 hr. The total amount of protein used for each assay was 20 μg. The final concentration of Suc-LLVY-AMC and DMSO was 20 μM and 0.2%, respectively.

Data set [2] addresses T2, chymotrypsin-like activity of 20S proteasomes in PC-3 cells (Homo sapiens, UniProt P28074).
T2 construct: endogenous in cells; host or cells: PC-3 (ATCC CRL-1435)
Put plainly: Chymotrypsin-like activity of 20S proteasomes in lysates of treated PC-3 cells. It is filed as cell-based. The conditions noted are these: PC-3, read-out: % inhibition of the chymotrypsin-like activity of 20S proteasomes in PC-3 cell lysates; 100 nM; 1 hr incubation. As for the experimental part: PC-3 (ATCC, CRL-1435), the human prostate cancer cell line, was cultured in F12K medium supplemented with 2 mM L-glutamine, 100 units/ml penicillin, 100 μg/ml streptomycin and 10% heat inactivated fetal bovine serum at 37° C., 5% CO2 and 95% humidified air. […] DMSO was used as the vehicle control at a final concentration of 0.1%. Following 1 hr incubation of PC-3 cells with the compounds, the cells were washed 3× with ice-cold 1× Dulbecco's Phosphate-Buffered Saline (DPBS, Mediatech, Herndon, Va.). […] Cell debris was pelleted by centrifugation at 14,000 rpm for 10 min, 4° C. and supernatants (=cell lysates) were transferred to a new tube. Protein concentration was determined by the BCA protein assay kit (Pierce Biotechnology, Rockford, Ill.). […] The released coumarin (AMC) was measured fluorometrically by using λex=390 nm and λem=460 nm. The assay was performed in a microtiter plate (Corning 3904) and followed kinetically with measurements every five minutes for 2 hr. The total amount of protein used for each assay was 20 μg. The final concentration of Suc-LLVY-AMC and DMSO was 20 μM and 0.2%, respectively. Results are presented as the percent inhibition of the 20S proteasome chymotrypsin-like activity relative to the DMSO control.

For the next data set, the system named is RPMI 8226. Kind of data set: cells. The procedure: RPMI 8226 (CCL-155), HT-29 (HTB-38), and B16-F10 (CRL-6475) cells were purchased from ATCC. RPMI 8226 cells were maintained in RPMI 1640 media supplemented with 10% (v/v) FBS, 2 mM L-glutamine, 1 mM sodium pyruvate and Penicillin/Streptomycin at 100 IU/ml and 100 μg/ml, respectively. HT-29 cells were maintained in McCoys 5A supplemented with 10% (v/v) FBS, 2 mM L-glutamine, 1 mM sodium pyruvate, 1% (v/v) non-essential amino acids, 10 mM HEPES and Penicillin/Streptomycin at 100 IU/ml and 100 μg/ml, respectively. B16-F10 cells were maintained in DMEM supplemented with 10% (v/v) FBS, 2 mM L-glutamine, 10 mM HEPES and Penicillin/Streptomycin at 100 IU/ml and 100 μg/ml, respectively.
RPMI 8226 cells were seeded at 2×10^4 cells/well in 90 μl RPMI media containing 10% (v/v) FBS or 1% (v/v) FBS into 96 well black-walled, clear-bottom tissue culture plates. […] Formulae II-16, II-17 and Formula II-18 were serially diluted in media containing 1% or 10% FBS and added in triplicate to the test wells. […] The final concentration of Formula II-18 ranged from 2 μM to 630 pM.

In another data set the test system is MDA-MB-231. Kind of data set: Cell growth inhibition (resazurin), MDA-MB-231. The conditions noted are these: from EC50 values.
Another data set relates to HL-60. Put plainly: Cell growth inhibition (resazurin), HL-60. The conditions noted are these: from EC50 values. It is filed as cell-based, human. A general note: The colour change of resazurin is a common sign of viable cells or microbes.
For the next data set, the system named is MES-SA. Put plainly: Cell growth inhibition (resazurin), MES-SA. It is filed as cell-based, human. The conditions noted are these: from EC50 values.
For the next data set, the system named is MES-SA/Dx5. Kind of data set: Cell growth inhibition (resazurin), multidrug resistant MES-SA/Dx5. The format is cell-based, human. The conditions noted are these: from EC50 values.
A further data set relates to HL-60/MX2. Kind of data set: Cell growth inhibition (resazurin), multidrug resistant HL-60/MX2. The conditions noted are these: from EC50 values. The procedure: Concentrations ranging from 6.32 μM to 2 nM were tested for II-2 and II-4.
HL-60/MX2 is a multidrug resistant tumor cell line derived from the human promyelocytic leukemia cell line, HL-60 and expresses reduced topoisomerase II activity. […] Mitoxantrone, the topoisomerase II targeting agent was included as a control.

For the next data set, the system named is PC-3. Put plainly: Cell growth inhibition (resazurin), PC-3. The conditions noted are these: from EC50 values. It is filed as cell-based, human.

Regarding `C[C@H]1C(=O)N[C@@]2(C(O)[C@@H]3C=CCCC3)C(=O)O[C@@]12C` (single isomer, unassigned) [Formula II-20], in data set [1], the inhibition (usually the share of the control response that was lost under treatment) at 0.001 µM was found to be 3 ± 10%, the inhibition at 0.005 µM came to 31 ± 9%, the inhibition at 0.01 µM is 37 ± 3% and the inhibition at 0.05 µM was found to be 64 ± 3%. In addition, in [1], the inhibition at 0.1 µM is 66 ± 3%, the inhibition at 0.5 µM stood at 71 ± 2%, the inhibition at 1 µM was 73 ± 2% and the inhibition at 10 µM was determined as 87 ± 4%. Further, the inhibition at 0.1 µM in data set [2] was found to be 57%.

Regarding `C[C@@]12OC(=O)[C@]1([C@@H](O)[C@@H]1C=CCCC1)NC(=O)[C@@H]2CCBr` [Formula II-18], the “cytotoxicity against RPMI 8226 in media containing 1% or 10% FBS, in words” value with RPMI 8226 (1% or 10% FBS) is listed as “cytotoxic”. In addition, the concentration giving a half-maximal response (EC50) (in general, the concentration giving half of the maximal effect) came out at 0.015 µM with RPMI 8226 (Homo sapiens, RPMI-8226, read-out: 1% FBS, EC50, RPMI 8226, media containing 1% FBS, single experiments); 0.02 µM in the data set on RPMI 8226 (Homo sapiens, RPMI-8226, read-out: 10% FBS, EC50, RPMI 8226, media containing 10% FBS, single experiments); 0.014 µM in the data set with RPMI 8226 (Homo sapiens, RPMI-8226, read-out: Mean 1% FBS, EC50, RPMI 8226, media containing 1% FBS, mean); 0.02 µM in the data set with RPMI 8226 (Homo sapiens, RPMI-8226, read-out: Mean 10% FBS, EC50, RPMI 8226, media containing 10% FBS, mean); 0.013 µM with RPMI 8226 (read-out: 1% FBS, EC50, RPMI 8226, media containing 1% FBS, single experiments). Further, the “change in the mean EC50, 10% FBS relative to 1% FBS” value with RPMI 8226 (RPMI 8226) is listed as “less than three fold decrease”. The “cytotoxicity against MDA-MB-231, in words” value with MDA-MB-231 is given as “cytotoxic”. For the same compound, in the data set with HL-60, the “cytotoxic activity against HL-60, in words” value is reported as “retained cytotoxic activity”. For the same compound, the “cytotoxic activity against MES-SA, in words” value with MES-SA was “cytotoxic activity”. The “cytotoxic activity against MES-SA/Dx5, in words” value in the data set on MES-SA/Dx5 is on record as “cytotoxic activity”. Further, the “cytotoxic activity against HL-60/MX2, in words” value in the data set on HL-60/MX2 was “retained cytotoxic activity”. In the data set on PC-3, the “cytotoxicity against PC-3, in words” value is “cytotoxic”.
